In ChEMBL document CHEMBL5584335, “Investigating Active Site Binding of Ligands to High and Low Activity Carbonic Anhydrase Enzymes Using Native Mass Spectrometry” (J Med Chem, 2024):
Activity calls are given as the source filed them. The calls are words filed in the database; no cut-off is given here.

Columns and labels:
Carbonic anhydrase 3 [1] = target: T1, Carbonic anhydrase 3 (Homo sapiens, UniProt P07451); test: Binding affinity to human recombinant CA III active site expressed in Escherichia coli BL21 (DE3) pLysS cells at 18.18 uM at protein:compound ratio of 1:2 incubated for 30 mins by native mass spectrometry analysis
T1 sequence (P07451 whole entry): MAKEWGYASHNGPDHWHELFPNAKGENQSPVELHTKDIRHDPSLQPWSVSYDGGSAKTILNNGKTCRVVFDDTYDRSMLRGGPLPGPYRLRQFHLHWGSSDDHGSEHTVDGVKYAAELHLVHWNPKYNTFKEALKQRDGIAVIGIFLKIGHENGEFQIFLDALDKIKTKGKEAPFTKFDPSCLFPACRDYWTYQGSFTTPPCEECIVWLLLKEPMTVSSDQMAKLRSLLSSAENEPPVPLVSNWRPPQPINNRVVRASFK

Carbonic anhydrase 3 [2] = target: T1, Carbonic anhydrase 3; test: Binding affinity to human recombinant CA III assessed as inhibition constant

Row | Compound | Activity (Carbonic anhydrase 3 [1]) | Ki (Carbonic anhydrase 3 [2]) [µM]
1 | CC1Cc2ccccc2N1NC(=O)c1ccc(Cl)c(S(N)(=O)=O)c1 (stereo unspecified) | inactive | 
2 | Cc1ccc(-c2cc(C(F)(F)F)nn2-c2ccc(S(N)(=O)=O)cc2)cc1 | inactive | 
3 | Cc1onc(-c2ccccc2)c1-c1ccc(S(N)(=O)=O)cc1 | inactive | 
4 | NS(=O)(=O)c1cc(C(=O)O)c(NCc2ccco2)cc1Cl | inactive | 
5 | NS(=O)(=O)c1ccc(N2CCCCS2(=O)=O)cc1 | inactive | 
6 | CCCCNc1cc(C(=O)O)cc(S(N)(=O)=O)c1Oc1ccccc1 [BUMETANIDE] | inactive | 3400
7 | NS(=O)(=O)c1cc2c(cc1Cl)NCNS2(=O)=O [HYDROCHLOROTHIAZIDE] | inactive | 790
8 | Cc1ccccc1N1C(=O)c2cc(S(N)(=O)=O)c(Cl)cc2NC1C (stereo unspecified) [METOLAZONE] | inactive | 610
